Measured values: ChEMBL document CHEMBL2413072, “Synthesis and in vitro anticancer studies of novel C-2 arylidene congeners of lantadenes” (2013)

Tests used:
Type in all cases: functional
SF-268 [1] = test: Growth inhibition of human SF268 cells assessed as cell growth at 10^-8 M by sulforhodamine B assay; conditions: read-out: Activity
OVCAR-5 [2] = test: Growth inhibition of human OVCAR5 cells assessed as cell growth at 10^-6 M by sulforhodamine B assay; conditions: read-out: Activity
HT-29 [3] = test: Growth inhibition of human HT-29 cells assessed as cell growth at 10^-6 M by sulforhodamine B assay; conditions: read-out: Activity
A549 [4] = test: Growth inhibition of human A549/ATCC cells assessed as cell growth at 10^-8 M by sulforhodamine B assay; conditions: read-out: Activity
NCI-H226 [5] = test: Growth inhibition of human NCI-H226 cells by sulforhodamine B assay
SNB-19 = test: Growth inhibition of human SNB19 cells assessed as cell growth at 10^-7 M by sulforhodamine B assay; conditions: read-out: Activity
MDA-MB-435 [6] = test: Growth inhibition of human MDA-MB-435 cells assessed as cell growth at 10^-7 M by sulforhodamine B assay; conditions: read-out: Activity
HT-29 [7] = test: Growth inhibition of human HT-29 cells by sulforhodamine B assay
M14 = test: Growth inhibition of human M14 cells assessed as cell growth at 10^-8 M by sulforhodamine B assay; conditions: read-out: Activity
SW-620 = test: Growth inhibition of human SW620 cells assessed as cell growth at 10^-8 M by sulforhodamine B assay; conditions: read-out: Activity
SK-MEL-5 [8] = test: Growth inhibition of human SK-MEL-5 cells assessed as cell growth at 10^-6 M by sulforhodamine B assay; conditions: read-out: Activity
A498 = test: Growth inhibition of human A498 cells assessed as cell growth at 10^-4 M by sulforhodamine B assay; conditions: read-out: Activity
[9] = Growth inhibition of human HCC2998 cells assessed as cell growth at 10^-6 M by sulforhodamine B assay; conditions: HCC 2998, read-out: Activity
COLO 205 = test: Growth inhibition of human COLO205 cells by sulforhodamine B assay
OVCAR-5 [10] = test: Growth inhibition of human OVCAR5 cells assessed as cell growth at 10^-8 M by sulforhodamine B assay; conditions: read-out: Activity
PC-3 = test: Growth inhibition of human PC3 cells by sulforhodamine B assay
A549 [11] = test: Growth inhibition of human A549/ATCC cells assessed as cell growth at 10^-7 M by sulforhodamine B assay; conditions: read-out: Activity
NCI-H23 = test: Growth inhibition of human NCI-H23 cells assessed as cell growth at 10^-8 M by sulforhodamine B assay; conditions: read-out: Activity
SNB-75 = test: Growth inhibition of human SNB75 cells assessed as cell growth at 10^-6 M by sulforhodamine B assay; conditions: read-out: Activity
HT-29 [12] = test: Growth inhibition of human HT-29 cells assessed as cell growth at 10^-4 M by sulforhodamine B assay; conditions: read-out: Activity
ACHN = test: Growth inhibition of human ACHN cells by sulforhodamine B assay
RPMI-8226 = test: Growth inhibition of human RPMI8226 cells assessed as cell growth at 10^-6 M by sulforhodamine B assay; conditions: read-out: Activity
SF-268 [13] = test: Growth inhibition of human SF268 cells by sulforhodamine B assay
U-251 = test: Growth inhibition of human U251 cells assessed as cell growth at 10^-7 M by sulforhodamine B assay; conditions: read-out: Activity
CAKI-1 [14] = test: Growth inhibition of human CAKI-1 cells by sulforhodamine B assay
NCI-H322M = test: Growth inhibition of human NCI-H322M cells assessed as cell growth at 10^-8 M by sulforhodamine B assay; conditions: read-out: Activity
786-0 = test: Growth inhibition of human 786-0 cells assessed as cell growth at 10^-4 M by sulforhodamine B assay; conditions: read-out: Activity
SK-MEL-28 = test: Growth inhibition of human SK-MEL-28 cells assessed as cell growth at 10^-6 M by sulforhodamine B assay; conditions: read-out: Activity
SK-MEL-5 [15] = test: Growth inhibition of human SK-MEL-5 cells assessed as cell growth at 10^-4 M by sulforhodamine B assay; conditions: read-out: Activity
A549 [16] = test: Growth inhibition of human A549/ATCC cells by sulforhodamine B assay
NCI-H226 [17] = test: Growth inhibition of human NCI-H226 cells assessed as cell growth at 10^-4 M by sulforhodamine B assay; conditions: read-out: Activity
MOLT-4 = test: Growth inhibition of human MOLT4 cells assessed as cell growth at 10^-7 M by sulforhodamine B assay; conditions: read-out: Activity
MDA-MB-435 [18] = test: Growth inhibition of human MDA-MB-435 cells assessed as cell growth at 10^-6 M by sulforhodamine B assay; conditions: read-out: Activity
SF-295 = test: Growth inhibition of human SF295 cells assessed as cell growth at 10^-8 M by sulforhodamine B assay; conditions: read-out: Activity
LOX IMVI = test: Growth inhibition of human LOXIMVI cells assessed as cell growth at 10^-6 M by sulforhodamine B assay; conditions: read-out: Activity
[19] = Growth inhibition of human Hs 578T cells assessed as cell growth at 10^-6 M by sulforhodamine B assay; conditions: read-out: Activity
CAKI-1 [20] = test: Growth inhibition of human CAKI-1 cells assessed as cell growth at 10^-6 M by sulforhodamine B assay; conditions: read-out: Activity
DU-145 = test: Growth inhibition of human DU145 cells by sulforhodamine B assay
HL-60(TB) = test: Growth inhibition of human HL-60(TB) cells assessed as cell growth at 10^-6 M by sulforhodamine B assay; conditions: read-out: Activity
[21] = read-out: LC50 (the source's name)
[22] = read-out: pLC50 (the source's name) (converted)

Structure (SMILES): CC(C)=CC(=O)O[C@@H]1CC(C)(C)C[C@H]2C3=CC[C@@H]4[C@@]5(C)CC[C@H](O)C(C)(C)[C@@H]5CC[C@@]4(C)[C@]3(C)CC[C@@]12C(=O)O [Reduced Lantadene B]
- growth at 0.01 µM (SF-268 [1]): 93%
- growth at 1 µM (OVCAR-5 [2]): 106%
- growth at 1 µM (HT-29 [3]): 89%
- growth at 0.01 µM (A549 [4]): 91%
- GI50 (NCI-H226 [5]; read-out: GI50): 5.09 µM
- LC50 (NCI-H226 [5]; read-out: LC50): 86 µM
- TGI (NCI-H226 [5]; read-out: TGI): 24.2 µM
- GI50 (NCI-H226 [5]; read-out: pGI50 (converted)): 5.13 µM
- LC50 (NCI-H226 [5]; read-out: pLC50 (converted)): 85.1 µM
- TGI (NCI-H226 [5]; read-out: pTGI (converted)): 24 µM
- growth at 0.1 µM (SNB-19): 86%
- growth at 0.1 µM (MDA-MB-435 [6]): 97%
- GI50 (HT-29 [7]; read-out: GI50): 4.24 µM
- LC50 (50% cell kill) (HT-29 [7]; read-out: LC50): > 100 µM
- TGI (HT-29 [7]; read-out: TGI): 27.1 µM
- GI50 (HT-29 [7]; read-out: pGI50 (converted)): 4.27 µM
- LC50 (50% cell kill) (HT-29 [7]; read-out: pLC50 (converted)): > 100 µM
- TGI (HT-29 [7]; read-out: pTGI (converted)): 26.9 µM
- growth at 0.01 µM (M14): 94%
- growth at 0.01 µM (SW-620): 102%
- growth at 1 µM (SK-MEL-5 [8]): 77%
- growth at 100 µM (A498): -90%
- growth at 1 µM [9]: 96%
- GI50 (COLO 205; read-out: GI50): 3.66 µM
- LC50 (COLO 205; read-out: LC50): 93.6 µM
- TGI (COLO 205; read-out: TGI): 14.3 µM
- GI50 (COLO 205; read-out: pGI50 (converted)): 3.63 µM
- LC50 (COLO 205; read-out: pLC50 (converted)): 93.3 µM
- TGI (COLO 205; read-out: pTGI (converted)): 14.5 µM
- growth at 0.01 µM (OVCAR-5 [10]): 95%
- GI50 (PC-3; read-out: GI50): 3.6 µM
- CC50 (PC-3; [21]): 64 µM
- TGI (PC-3; read-out: TGI): 21.9 µM
- GI50 (PC-3; read-out: pGI50 (converted)): 3.63 µM
- CC50 (PC-3; [22]): 64.6 µM
- TGI (PC-3; read-out: pTGI (converted)): 21.9 µM
- growth at 0.1 µM (A549 [11]): 79%
- growth at 0.01 µM (NCI-H23): 95%
- growth at 1 µM (SNB-75): 85%
- growth at 100 µM (HT-29 [12]): -36%
- GI50 (ACHN; read-out: GI50): 2.93 µM
- CC50 (ACHN; [21]): 58.5 µM
- TGI (ACHN; read-out: TGI): 20.4 µM
- GI50 (ACHN; read-out: pGI50 (converted)): 2.95 µM
- CC50 (ACHN; [22]): 58.9 µM
- TGI (ACHN; read-out: pTGI (converted)): 20.4 µM
- growth at 1 µM (RPMI-8226): 65%
- GI50 (SF-268 [13]; read-out: GI50): 5.87 µM
- LC50 (SF-268 [13]; read-out: LC50): 97.2 µM
- TGI (SF-268 [13]; read-out: TGI): 26.1 µM
- GI50 (SF-268 [13]; read-out: pGI50 (converted)): 5.89 µM
- LC50 (SF-268 [13]; read-out: pLC50 (converted)): 97.7 µM
- TGI (SF-268 [13]; read-out: pTGI (converted)): 26.3 µM
- growth at 0.1 µM (U-251): 96%
- GI50 (CAKI-1 [14]; read-out: GI50): 3.39 µM
- CC50 (CAKI-1 [14]; [21]): > 100 µM
- TGI (CAKI-1 [14]; read-out: TGI): 46.8 µM
- GI50 (CAKI-1 [14]; read-out: pGI50 (converted)): 3.39 µM
- CC50 (CAKI-1 [14]; [22]): > 100 µM
- TGI (CAKI-1 [14]; read-out: pTGI (converted)): 46.8 µM
- growth at 0.01 µM (NCI-H322M): 90%
- growth at 100 µM (786-0): -73%
- growth at 1 µM (SK-MEL-28): 97%
- growth at 100 µM (SK-MEL-5 [15]): -64%
- GI50 (A549 [16]; read-out: GI50): 0.438 µM
- CC50 (A549 [16]; [21]): 82.4 µM
- TGI (A549 [16]; read-out: TGI): 14.9 µM
- GI50 (A549 [16]; read-out: pGI50 (converted)): 0.437 µM
- CC50 (A549 [16]; [22]): 83.2 µM
- TGI (A549 [16]; read-out: pTGI (converted)): 14.8 µM
- growth at 100 µM (NCI-H226 [17]): -56%
- growth at 0.1 µM (MOLT-4): 94%
- growth at 1 µM (MDA-MB-435 [18]): 95%
- growth at 0.01 µM (SF-295): 95%
- growth at 1 µM (LOX IMVI): 88%
- growth at 1 µM [19]: 92%
- growth at 1 µM (CAKI-1 [20]): 85%
- GI50 (DU-145; read-out: GI50): 7.7 µM
- CC50 (DU-145; [21]): 61.6 µM
- TGI (DU-145; read-out: TGI): 23.5 µM
- GI50 (DU-145; read-out: pGI50 (converted)): 7.76 µM
- CC50 (DU-145; [22]): 61.7 µM
- TGI (DU-145; read-out: pTGI (converted)): 23.4 µM
- growth at 1 µM (HL-60(TB)): 96%
